Assay results published in US12447137B2, “Composition for prevention, amelioration, or treatment of cancer” (EWHA UNIVERSITY—INDUSTRY COLLABORATION FOUNDATION, priority 2019, dated 2025).
Read-outs that look alike come from different tables or passages of the source.

Tests used:
4T1 cell line [1] = assay: Cell viability assay (WST-1); assay type: cell-based; settings: Mus musculus
Experimental: (§1) [4-1-1] The breast cancer cell line of Experimental Method 1 was treated with 5-aminoimidazole-4-carboxamide ribonucleotide (AICAR) (which is not the compound of Production Example 6) or the compound of Production Example 6 at a concentration of 0 to 30 μM, and then cultured for 24 hours, 48 hours and 72 hours. Thereafter, the cultured cells were treated with WST-1 reagent, and then the absorbance at a wavelength of 450 nm was measured. Here, the WST-1 reagent allows the cell viability to be measured by changing the color of the culture medium depending on the level of the mitochondrial dehydrogenase present in the cell.
(§2) [4-1-2] The breast cancer cell line 4T1, BT549 or MDA-MB-231 of Experimental Method 1 was treated with each of the compound of Production Example 6 and 13 compounds, including the compounds of Production Examples 1 to 5 and 8 to 15 having a similar structure (YE-01, 02, 03, 04, 05, 08, 09, 10, 11, 12, 13, 14 and 15), at a concentration of 0 to 50 μM, and then cultured for 24 hours. Each of three types of gastric cancer cell lines, brain cancer cell lines and pancreatic cancer cell lines was treated with the compound of Production Example 6 or the compound of Production Example 8 having a similar structure at a concentration of 0 to 50 μM, and then cultured for 24 hours. Thereafter, the cultured cells were treated with WST-1 reagent according to the manufacturer's instruction, and after a certain time, the absorbance at a wavelength of 450 nm was measured. Here, the WST-1 reagent allows the cell viability to be measured by changing the color of the culture medium depending on the level of the mitochondrial dehydrogenase present in the cell.

BT549 cell line = assay: Cell viability assay (WST-1); assay type: cell-based; settings: Homo sapiens
Experimental: as §1, §2

MDA-MB-231 cell line = assay: Cell viability assay (WST-1); assay type: cell-based; settings: Homo sapiens, MDA-MB-231, 24 h, read-out: cancer cell viability inhibited
Experimental: as §1, §2

p-AMPK (Thr172) [2] = assay: AMPK activation by p-AMPK (Thr172) Western blot in MDA-MB-231 cells; assay type: cell-based, human; settings: 24 hours
Experimental: [3-1] The breast cancer cell line of Experimental Method 1 above was treated with the compound of Production Example 6 at a concentration of 0 to 30 μM, and then cultured for 24 hours. Thereafter, the cells were harvested and lysed in RIPA buffer, and the protein was electrophoresed by SDS-PAGE, and then the expression level of the protein was analyzed using antibodies specific for AMPK and phospho-AMPK (Thr172). GAPDH or β-actin was used as a loading control for protein quantification.
(§3) [3-2] The three breast cancer cell lines (4T1, BT549, and MDA-MB-231) of Experimental Method 1 were treated with each of the compound of Production Example 6 and 13 compounds, including the compounds of Production Examples 1 to 5 and 8 to 15 having a similar structure (YE-01, 02, 03, 04, 05, 08, 09, 10, 11, 12, 13, 14 and 15), at a concentration of 10 μM, and then cultured for 24 hours. In addition, each of two types of gastric cancer cell lines, brain cancer cell lines and pancreatic cancer cell lines was treated with the compound of Production Example 6 or the compound of Production Example 8 having a similar structure at a concentration of 10 μM and then cultured for 12 hours. Thereafter, the cells were harvested and lysed in RIPA buffer, and the protein was electrophoresed by SDS-PAGE, and then the expression level of the protein was analyzed using antibodies specific for AMPK and phospho-AMPK (Thr172). GAPDH or β-actin was used as a loading control for protein quantification.

p-AMPK (Thr172) [3] = assay: AMPK activation by p-AMPK (Thr172) Western blot in gastric cancer cell lines; assay type: cell-based, human; settings: 10 μM, 12 hours, compared to untreated group
Experimental: as §3

[4] = system: cleaved-PARP, Bcl-2 and Cyclin D1 proteins; assay: Apoptosis marker Western blot in MDA-MB-231 cell line; assay type: cell-based, human; settings: FIG. 5
4T1 cell line [5] = assay: Flow cytometry assay (Annexin V / PI); assay type: cell-based, mouse; settings: 4T1, 0 to 30 μM, 24 hours; FIG. 6
Experimental: The breast cancer cell line of Experimental Method 1 was treated with the compound of Production Example 6 at a concentration of 0 to 30 μM and cultured for 24 hours. Thereafter, the cultured cells were detached by trypsin, and then double-stained with Annexin V; recognizing apoptosis) and PI (propidium iodide; recognizing cell necrosis), and then the pattern and level of apoptosis were measured using flow cytometry.

[6] = system: EMT protein markers α-SMA, Vimentin, ZEB-1 and Slug; assay: EMT protein marker Western blot, TGF-β1-treated MDA-MB-231 cells; assay type: cell-based, human; settings: MDA-MB-231, with TGF-β1; FIG. 7A
Experimental: (§4) The culture medium of the breast cancer cell line of Experimental Method 1 was replaced with a serum-free medium. Then, the cells were treated with 2 ng/mL of TGF-β1 and the compound of Preparation Example 6 and cultured for 20 to 24 hours. Thereafter, as described in Experimental Method 3, the expression level of the protein was measured using an antibody specific for the EMT-related protein.

[7] = system: EMT protein markers α-SMA, Vimentin, ZEB-1 and Slug; assay: EMT protein marker Western blot, TGF-β1-treated 4T1 cells; assay type: cell-based, mouse; settings: 4T1, with TGF-β1; FIG. 7A
Experimental: as §4

## COc1ccc(OC)c(/C=C/C(=O)c2ccc(NS(=O)(=O)c3ccc(Cl)cc3)cc2)c1 [Production Example 6, (E)-4-chloro-N-(4-(3-(2,5-dimethoxyphenyl)acryloyl)phenyl)benzenesulfonamide]
4T1 cell line [1]; 4T1, 24 h, read-out: cancer cell viability inhibited
  cytotoxicity at 10 µM: ≥ 50%
4T1 cell line [1]; 4T1, read-out: cell viability inhibited
  cytotoxicity at 10 µM: ≥ 50%
BT549 cell line; BT-549, 24 h, read-out: cancer cell viability inhibited
  cytotoxicity at 10 µM: ≥ 50%
BT549 cell line; BT-549, read-out: cell viability inhibited
  cytotoxicity at 10 µM: ≥ 50%
MDA-MB-231 cell line
  cytotoxicity at 10 µM: ≥ 50%
p-AMPK (Thr172) [2]; MDA-MB-231, 0 to 30 μM, FIG. 5
  phospho-AMPK protein: increased in a concentration-dependent manner
p-AMPK (Thr172) [2]; MDA-MB-231, 10 μM, FIG. 3B
  p-AMPK level: effectively increased
p-AMPK (Thr172) [3]
  expression of p-AMPK: increased
[4]
  level of Bcl-2 protein: decreased
  level of Cyclin D1 protein: decreased
  level of apoptosis marker cleaved-PARP protein: increased
4T1 cell line [5]
  cells stained with annexin V or PI: increased in a concentration-dependent manner
[6]
  Slug protein: decreased
  Vimentin protein: decreased
  ZEB-1 protein: decreased
  α-SMA protein: decreased
[7]
  Slug protein: decreased
  Vimentin protein: decreased
  ZEB-1 protein: decreased
  α-SMA protein: decreased
